Laboratory results from patent US6602862B1, “1-Amino-alkylcyclohexanes as trypanocidal agents” (Merz Pharma GmbH & Co., KGAA, priority 2000, dated 2003).
Like-named read-outs stand apart in the source and are kept apart here. Blank lines part the entries; values can stand above or below the compound they belong to.

Legend:
[1] = test system: Bloodstream form T-brucei (strain 427); assay: Growth inhibition of cultured bloodstream form T. brucei, 3 days in presence of test compounds; conditions: for (Inhibition) (5 μg ml^−1): preliminary screen at 5 μg ml^−1, 3 days; for inhibition at 5 µg/mL: read-out: (Inhibition) (5 μg ml^−1)
[2] = patients, advanced stage of the disease; cited from earlier work
[3] = test system: bloodstream form of the African trypanosome, Trypanosoma brucei; conditions: reported recently; cited from earlier work
[4] = Trypanosoma brucei, 72 h, pH 7.4
[5] = Trypanosoma brucei, 72 h, read-out: IC90
[6] = concentration inhibiting growth by 50%, 3 days, 37°, pH 7.4, ±SD
[7] = concentration inhibiting growth by 90%, 3 days, 37°, pH 7.4, ±SD, ++ = six experiments

- IC50 [1, 4]: 1.45 ± 0.07 µg/mL
- IC90 [1, 4]: 1.93 ± 0.02 µg/mL
Structure (SMILES): CCC1(C)CC(C)(C)CC(C)(N)C1 (stereo not drawn) [Compound 615, 1-Amino-1,3,5,5-tetramethyl-3-ethylcyclohexane]

Structure (SMILES): CCC[C@H]1CCC[C@](C)(N)C1 (relative stereo) [Compound 627, 1-Amino-1-methyl-3 (trans) propylcyclohexane]
- (Inhibition) (5 μg ml^−1) [1]: (17%)

Structure (SMILES): CC[C@H]1CCC[C@](C)(N)C1 (relative stereo) [Compound 629, 1-Amino-1-methyl-3 (trans) ethylcyclohexane]
- inhibition at 5 µg/mL ([1]; Trypanosoma brucei, 72 h): 2%

- IC50 [1, 4]: 1.37 ± 0.19 µg/mL
- IC90 [1, 4]: 1.96 ± 0.03 µg/mL
- IC90 [1, 5]: < 2 µg/mL
Structure (SMILES): CCNC1(C)CC(C)(C)CC(C)(C)C1 [Compound 639, N-Ethyl-1,3,3,5,5-pentamethylcyclohexylamine]

- IC50 [1, 6]: 0.22 ± 0.02 µg/mL
- IC90 [1, 7]: 0.29 ± 0.01 µg/mL
Structure (SMILES): CC(C)(N)CC1CC(C)(C)CC(C)(C)C1 [Compound 645, 2-Methyl-1-(3,3,5,5-tetramethylcyclohexyl)propyl-2-amine]

- IC50 [1, 4]: 0.55 ± 0.11 µg/mL
- IC90 [1, 4]: 0.88 ± 0.09 µg/mL
Structure (SMILES): CCCC1(C)CC(C)(C)CC(C)(N)C1 (stereo not drawn) [Compound 614, 3-Propyl-1,3,5,5-Tetramethylcyclohexylamine]

Structure (SMILES): Nc1nc(N)nc(Nc2ccc([As]3SCC(CO)S3)cc2)n1 (stereo not drawn) [Melarsoprol]
- patient mortality due to arsenic encephalopathy [2]: 5 to 10%

- IC50 [1, 6]: 2.23 ± 0.33 µg/mL
- IC90 [1, 7]: 3.67 ± 0.06 µg/mL
Structure (SMILES): CCC[C@H]1CC(C)(C)C[C@](C)(N)C1 (relative stereo) [Compound 635, trans-3-Propyl-1,5,5-trimethylcyclohexylamine]

Structure (SMILES): CC(N)C12CC3CC(CC(C3)C1)C2 (stereo not drawn) [rimantadine]
- sensitivity of bloodstream form T. brucei [3]: sensitive

Structure (SMILES): CC1(N)CCCCC1 [Compound 641, 1-Amino-1-methylcyclohexane]
- inhibition at 5 µg/mL ([1]; Trypanosoma brucei, 72 h): 86%

- IC50 [1, 4]: 0.23 ± 0.02 µg/mL
- IC90 [1, 4]: 0.31 ± 0.03 µg/mL
Structure (SMILES): CC1(C)CC(CCN)CC(C)(C)C1 [Compound 644, 2-(3,3,5,5-Tetramethylcyclohexyl)ethylamine]

Structure (SMILES): CCC1CC(C)(C)CC(C)(N)C1 (stereo not drawn) [Compound 633, 1-Amino-1,3,3-trimethyl-5 (trans) ethylcyclohexane]
- inhibition at 5 µg/mL ([1]; Trypanosoma brucei, 72 h): 68%

Structure (SMILES): CCC1(C)CCCC(C)(N)C1 (stereo not drawn) [Compound 620, 1-Amino-1,3-dimethyl-3-ethylcyclohexane]
- inhibition at 5 µg/mL ([1]; Trypanosoma brucei, 72 h): 25%

Structure (SMILES): CCC1(C)CC(C)CC(C)(N)C1 (stereo not drawn) [Compound 622, cis-3-Ethyl-1, trans-3, trans-5-trimethylcyclohexamine]
- (Inhibition) (5 μg ml^−1) [1]: (40%)

Structure (SMILES): CN(C)C1(C)CC(C)(C)CC(C)(C)C1 [Compound 642, N,N-dimethyl-1-amino-1,3,3,5,5-pentamethylcyclohexane]
- inhibition at 5 µg/mL ([1]; Trypanosoma brucei, 72 h): 21%

- IC50 [1, 6]: 2.19 ± 0.69 µg/mL
- IC90 [1, 7]: 3.59 ± 0.17 µg/mL
Structure (SMILES): CCCC1(C)CC(C)CC(C)(N)C1 (stereo not drawn) [Compound 618, 1-Amino-1,3 (trans),5 (trans)-trimethyl-3(cis)-propylcyclohexane]

Structure (SMILES): CC1(C)CCCC(C)(N)C1 (stereo not drawn) [Compound 621, 1-Amino-1,3,3-trimethylcyclohexane]
- inhibition at 5 µg/mL ([1]; Trypanosoma brucei, 72 h): 40%

- IC50 [1, 6]: 0.57 ± 0.13 µg/mL
- IC90 [1, 7]: 0.77 ± 0.15++ μg ml−1
Structure (SMILES): CCC[C@H]1CC(C)(C)C[C@@](C)(N)C1 (relative stereo) [Compound 634, cis-3-Propyl-1,5,5-trimethylcyclohexylamine]

Structure (SMILES): CC1(C)CC(C)(C)CC(C)(CCN)C1 [Compound 662, 2-(1,3,3,5,5-Pentamethylcyclohexyl-1) ethylamine]
- IC50 [1, 6]: 0.24 ± 0.03 µg/mL
- IC90 [1, 7]: 0.38 ± 0.08++ μg ml−1

Structure (SMILES): C[C@@H]1CC(C)(C)C[C@@](C)(N)C1 (relative stereo) [Compound 607, 1-Amino-1,3,3,5(trans)-tetramethylcyclohexane]
- (Inhibition) (5 μg ml^−1) [1]: (17%)

Structure (SMILES): CCCC1(N)CC(C)(C)CC(C)(C)C1 [Compound 601, 1-Amino-1-propyl-3,3,5,5-tetramethylcyclohexane]
- IC50 [1, 4]: 1.43 ± 0.08 µg/mL
- IC90 [1, 4]: 1.87 ± 0.02 µg/mL
- IC90 [1, 5]: < 2 µg/mL

- IC50 [1, 4]: 1.44 ± 0.09 µg/mL
- IC90 [1, 4]: 1.89 ± 0.02 µg/mL
- IC90 [1, 5]: < 2 µg/mL
Structure (SMILES): CC1(C)CC(CN)CC(C)(C)C1 [Compound 580, 3,3,5,5-Tetramethylcyclohexylmethylamine]

- IC50 [1, 4]: 2.92 ± 0.19 µg/mL
- IC90 [1, 4]: 3.8 ± 0.07 µg/mL
Structure (SMILES): CC[C@@H]1CC(C)(C)C[C@](C)(N)C1 (relative stereo) [Compound 632, 1-Amino-1,3,3-trimethyl-5 (cis) ethylcyclohexane]

- IC50 [1, 4]: 1.54 ± 0.08 µg/mL
- IC90 [1, 4]: 2.33 ± 0.24 µg/mL
Structure (SMILES): CCCC1(C)CCCC(C)(N)C1 (stereo not drawn) [Compound 617, 1-Amino-1,3-dimethyl-3-propylcyclohexane]

- IC50 [1, 6]: 1.54 ± 0.02 µg/mL
- IC90 [1, 7]: 1.95 ± 0.03 µg/mL
Structure (SMILES): CCCC1CCCC(C)(N)C1 (stereo not drawn) [Compound 628, 1-Methyl-3-cis-propylcyclohexylamine]

Structure (SMILES): C[C@H]1CCC[C@](C)(N)C1 (relative stereo) [Compound 625, 1-Amino-1,3 (trans)-dimethylcyclohexane]
- (Inhibition) (5 μg ml^−1) [1]: (0%)

- IC50 [1, 4]: 0.25 ± 0.01 µg/mL
- IC90 [1, 4]: 0.29 ± 0.01 µg/mL
Structure (SMILES): CCCC1(CCC)CC(C)(C)CC(C)(N)C1 (stereo not drawn) [Compound 626, 1,3,3-Trimethyl-5,5-dipropylcyclohexylamine]
